Laboratory results published in patent US20230374015A1, “INHIBITORS OF FIBROBLAST GROWTH FACTOR RECEPTOR KINASES” (Kinnate Biopharma Inc., priority 2020, published 2023).

Biological target: FGFR2 (Homo sapiens, UniProt P21802)
Test: FGFR2 Kinase Protocol - Condition 2 (Reaction Biology HotSpot radiometric kinase assay, no preincubation)
Type: biochemical
Settings: poly[Glu:Tyr] (4:1) 0.2 mg/ml, ATP 100 microM, 2 hr room temperature
Outline: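 Radiometric HotSpot format: FGFR2 (wildtype or V564F) with poly[Glu:Tyr] (4:1) at 0.2 mg/ml in HEPES pH 7.5 buffer with 1% DMSO; ATP plus [γ33P]ATP at 100 µM total, added without preincubation. Reactions ran 2 hr at room temperature, then filter-bound. IC50 from 10-dose, 3-fold series versus DMSO control.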

Chain of FGFR2 (P21802 22-821): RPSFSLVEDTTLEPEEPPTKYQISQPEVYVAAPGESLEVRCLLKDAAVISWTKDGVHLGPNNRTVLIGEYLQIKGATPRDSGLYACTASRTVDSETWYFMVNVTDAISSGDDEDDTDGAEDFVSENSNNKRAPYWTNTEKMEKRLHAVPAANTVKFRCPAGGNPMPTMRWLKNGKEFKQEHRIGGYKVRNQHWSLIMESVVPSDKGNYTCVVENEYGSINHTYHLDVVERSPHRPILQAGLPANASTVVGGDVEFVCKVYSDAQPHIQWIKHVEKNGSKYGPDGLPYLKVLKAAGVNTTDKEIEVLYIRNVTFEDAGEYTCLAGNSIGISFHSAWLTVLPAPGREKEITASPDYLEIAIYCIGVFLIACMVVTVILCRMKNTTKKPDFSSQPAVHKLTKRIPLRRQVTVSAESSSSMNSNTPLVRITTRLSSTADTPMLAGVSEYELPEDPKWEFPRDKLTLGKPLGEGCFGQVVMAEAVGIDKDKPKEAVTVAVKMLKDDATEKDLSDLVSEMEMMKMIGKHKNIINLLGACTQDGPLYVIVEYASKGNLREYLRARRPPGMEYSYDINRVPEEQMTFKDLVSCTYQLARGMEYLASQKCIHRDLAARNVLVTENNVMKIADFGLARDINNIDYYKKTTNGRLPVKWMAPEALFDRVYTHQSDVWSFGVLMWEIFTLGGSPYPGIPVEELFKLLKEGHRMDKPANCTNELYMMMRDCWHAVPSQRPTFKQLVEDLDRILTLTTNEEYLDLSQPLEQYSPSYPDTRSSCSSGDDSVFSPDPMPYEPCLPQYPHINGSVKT

IC50 [nM] | IC50 (given as numeric bound) [nM] | SMILES
≤ 100 |  | C=CC(=O)N1CC[C@H](n2nc(C#Cc3cc4ncn(C5CC5)c4c(F)c3Cl)c3c(N)ncnc32)C1 [Example 190, 1-[(3S)-3-{4-Amino-3-[2-(6-chloro-1-cyclopropyl-7-fluoro-1,3-benzodiazol-5-yl)ethynyl]pyrazolo[3,4-d]pyrimidin-1-yl}pyrrolidin-1-yl]prop-2-en-1-one]
≤ 100 |  | C=CC(=O)N1CC[C@H](n2cc(C#Cc3cc4ncn(CC)c4cc3Cl)c3c(N)ncnc32)C1 [Example 143, (S)-1-(3-(4-Amino-5-((6-chloro-1-ethyl-1H-benzo[d]imidazol-5-yl)ethynyl)-7H-pyrrolo[2,3-d]pyrimidin-7-yl)pyrrolidin-1-yl)prop-2-en-1-one]
≤ 100 |  | C=CC(=O)N1C[C@@H](n2nc(C#Cc3c(Cl)cc4c(ncn4C)c3F)c3c(N)nccc32)C[C@@H]1COC [Example 105, 1-[(2R,4S)-4-[4-Amino-3-[2-(6-chloro-4-fluoro-1-methyl-1,3-benzodiazol-5-yl)ethynyl]pyrazolo[4,3-c]pyridin-1-yl]-2-(methoxymethyl)pyrrolidin-1-yl]prop-2-en-1-one]
≤ 100 |  | C=CC(=O)N1C[C@@H](n2nc(C#Cc3ccc4c(c3)ncn4C3CC3)c3c(N)ncnc32)C[C@@H]1CC#N [Example 188, 2-[(2R,4S)-4-{4-Amino-3-[2-(1-cyclopropyl-1,3-benzodiazol-5-yl)ethynyl]pyrazolo[3,4-d]pyrimidin-1-yl}-1-(prop-2-enoyl)pyrrolidin-2-yl]acetonitrile]
≤ 100 |  | C=CC(=O)N1C[C@@H](n2nc(C#Cc3cc4ncn(C)c4cc3F)c3c(N)ncnc32)C[C@@H]1COC(F)(F)F [Example 57, 1-[(2R,4S)-4-[4-Amino-3-[2-(6-fluoro-1-methyl-1,3-benzodiazol-5-yl)ethynyl]pyrazolo[3,4-d]pyrimidin-1-yl]-2-[(trifluoromethoxy)methyl]pyrrolidin-1-yl]prop-2-en-1-one]
≤ 100 |  | C=CC(=O)N1C[C@@H](n2nc(C#Cc3c(F)cc4c(cnn4C)c3F)c3c(N)ncnc32)C[C@@H]1COC [Example 48, 1-((2R,4S)-4-(4-amino-3-((4,6-difluoro-1-methyl-1H-indazol-5-yl)ethynyl)-1H-pyrazolo[3,4-d]pyrimidin-1-yl)-2-(methoxymethyl)pyrrolidin-1-yl)prop-2-en-1-one]
100 to 1000 |  | C=CC(=O)N1C[C@@H](n2nc(C#Cc3c(F)cc4nn(C)cc4c3F)c3c(N)nccc32)C[C@@H]1COC [Example 45, 1-((2R,4S)-4-(4-amino-3-((4,6-difluoro-2-methyl-2H-indazol-5-yl)ethynyl)-1H-pyrazolo[4,3-c]pyridin-1-yl)-2-(methoxymethyl)pyrrolidin-1-yl)prop-2-en-1-one]
≤ 100 |  | C=CC(=O)N1C[C@@H](n2nc(C#Cc3ccc4c(cnn4CC)c3)c3c(N)ncnc32)C[C@@H]1COC [Example 34, 1-((2R,4S)-4-(4-amino-3-((1-ethyl-1H-indazol-5-yl)ethynyl)-1H-pyrazolo[3,4-d]pyrimidin-1-yl)-2-(methoxymethyl)pyrrolidin-1-yl)prop-2-en-1-one]
≤ 100 |  | C=CC(=O)N1C[C@@H](n2nc(C#Cc3cc4ncn(C)c4c(F)c3F)c3c(N)nccc32)C[C@@H]1CC#N [Example 159, 2-((2R,4S)-1-Acryloyl-4-(4-amino-3-((6,7-difluoro-1-methyl-1H-benzo[d]imidazol-5-yl)ethynyl)-1H-pyrazolo[4,3-c]pyridin-1-yl)pyrrolidin-2-yl)acetonitrile]
≤ 100 |  | C=CC(=O)N1C[C@@H](n2nc(C#Cc3cc4ncoc4cc3F)c3c(N)ncnc32)C[C@@H]1COC [Example 119, 1-[(2R,4S)-4-[4-Amino-3-[2-(6-fluoro-1,3-benzoxazol-5-yl)ethynyl]pyrazolo[3,4-d]pyrimidin-1-yl]-2-(methoxymethyl)pyrrolidin-1-yl]prop-2-en-1-one]

The remaining lines, values behind:

SMILES | IC50 [nM] | IC50 (given as numeric bound) [nM]
C=CC(=O)N1C[C@@H](n2nc(C#Cc3c(F)cc4c(ncn4C)c3F)c3c(N)ncnc32)C[C@@H]1COC(F)F [Example 139, 1-[(2R,4S)-4-{4-Amino-3-[2-(4,6-difluoro-1-methyl-1,3-benzodiazol-5-yl)ethynyl]pyrazolo[3,4-d]pyrimidin-1-yl}-2-[(difluoromethoxy)methyl]pyrrolidin-1-yl]prop-2-en-1-one] | ≤ 100 | 
C=CC(=O)N1CC[C@H](n2nc(C#Cc3cc4ncn(C)c4cc3F)c3c(N)nccc32)C1 [Example 141, 1-[(3S)-3-{4-Amino-3-[2-(6-fluoro-1-methyl-1,3-benzodiazol-5-yl)ethynyl]pyrazolo[4,3-c]pyridin-1-yl}pyrrolidin-1-yl]prop-2-en-1-one] | ≤ 100 | 
C=CC(=O)N1C[C@@H](n2cc(C#Cc3cc4ncn(C)c4cc3F)c3c(N)ncnc32)C[C@@H]1COC [Example 63, 1-[(2R,4S)-4-[4-Amino-5-[2-(6-fluoro-1-methyl-1,3-benzodiazol-5-yl)ethynyl]pyrrolo[2,3-d]pyrimidin-7-yl]-2-(methoxymethyl)pyrrolidin-1-yl]prop-2-en-1-one] | ≤ 100 | 
C=CC(=O)N1C[C@@H](n2nc(C#Cc3c(F)cc4c(ncn4C)c3F)c3c(N)ncnc32)C[C@@H]1COC [Example 55, 1-[(2R,4S)-4-[4-Amino-3-[2-(4,6-difluoro-1-methyl-1,3-benzodiazol-5-yl)ethynyl]pyrazolo[3,4-d]pyrimidin-1-yl]-2-(methoxymethyl)pyrrolidin-1-yl] prop-2-en-1-one] | ≤ 100 | 
C=CC(=O)N1C[C@@H](n2nc(C#Cc3c(F)cc4c(nc(C)n4C)c3F)c3c(N)nccc32)C[C@@H]1CC#N [Example 39, 2-((2R,4S)-1-acryloyl-4-(4-amino-3-((4,6-difluoro-1,2-dimethyl-1H-benzo[d]imidazol-5-yl)ethynyl)-1H-pyrazolo[4,3-c]pyridin-1-yl)pyrrolidin-2-yl)acetonitrile] | ≤ 100 | 
C=CC(=O)N1CC[C@H](n2nc(C#Cc3cc4ncn(C)c4c(F)c3F)c3c(N)ncnc32)C1 [Example 154, 1-[(3S)-3-{4-Amino-3-[2-(6,7-difluoro-1-methyl-1,3-benzodiazol-5-yl)ethynyl]pyrazolo[3,4-d]pyrimidin-1-yl}pyrrolidin-1-yl]prop-2-en-1-one] | ≤ 100 | 
C=CC(=O)N1C[C@H](c2nc(C#Cc3cc4ncn(C5CC5)c4cc3F)c3c(N)ncnn23)C[C@@H]1COC [Example 198, 1-[(2R,4R)-4-{4-Amino-5-[2-(1-cyclopropyl-6-fluoro-1,3-benzodiazol-5-yl)ethynyl]imidazo[4,3-f][1,2,4]triazin-7-yl}-2-(methoxymethyl)pyrrolidin-1-yl]prop-2-en-1-one] |  | > 500
C=CC(=O)N1C[C@@H](n2nc(C#Cc3c(F)cc4c(ncn4C(F)F)c3F)c3c(N)nccc32)C[C@@H]1COC [Example 65, 1-[(2R,4S)-4-(4-Amino-3-[2-[1-(difluoromethyl)-4,6-difluoro-1,3-benzodiazol-5-yl]ethynyl]pyrazolo[4,3-c]pyridin-1-yl)-2-(methoxymethyl)pyrrolidin-1-yl]prop-2-en-1-one] | ≤ 100 | 
C=CC(=O)N1C[C@@H](n2nc(C#Cc3ccc4nn(C)cc4c3)c3c(N)ncnc32)C[C@@H]1COC [Example 41, 1-[(2R,4S)-4-[4-amino-3-[2-(2-methylindazol-5-yl)ethynyl]pyrazolo[3,4-d]pyrimidin-1-yl]-2-(methoxymethyl)pyrrolidin-1-yl]prop-2-en-1-one] | 100 to 1000 | 
C=CC(=O)N1C[C@@H](c2nc(C#Cc3cc4ncn(C5CC5)c4cc3F)c3c(N)nccn23)C[C@@H]1COC [Example 203, 1-[(2R,4S)-4-{8-Amino-1-[2-(1-cyclopropyl-6-fluoro-1,3-benzodiazol-5-yl)ethynyl]imidazo[1,5-a]pyrazin-3-yl}-2-(methoxymethyl)pyrrolidin-1-yl]prop-2-en-1-one] | ≤ 100 | 
C=CC(=O)N1CC[C@H](n2nc(C#Cc3cc4nc(C)n(C)c4c(F)c3F)c3c(N)ncnc32)C1 [Example 189, 1-[(3S)-3-{4-Amino-3-[2-(6,7-difluoro-1,2-dimethyl-1,3-benzodiazol-5-yl)ethynyl]pyrazolo[3,4-d]pyrimidin-1-yl}pyrrolidin-1-yl]prop-2-en-1-one] | ≤ 100 | 
C=CC(=O)N1CC[C@H](n2nc(C#Cc3cc4ncn(C5CC5)c4c(F)c3F)c3c(N)ncnc32)C1 [Example 194, 1-[(3S)-3-{4-Amino-3-[2-(1-cyclopropyl-6,7-difluoro-1,3-benzodiazol-5-yl)ethynyl]pyrazolo[3,4-d]pyrimidin-1-yl}pyrrolidin-1-yl]prop-2-en-1-one] | ≤ 100 | 
C=CC(=O)N1C[C@@H](n2nc(C#Cc3cc4ncn(C)c4c(F)c3Cl)c3c(N)ncnc32)C[C@@H]1CC#N [Example 161, 2-[(2R,4S)-4-{4-Amino-3-[2-(6-chloro-7-fluoro-1-methyl-1,3-benzodiazol-5-yl)ethynyl]pyrazolo[3,4-d]pyrimidin-1-yl}-1-(prop-2-enoyl)pyrrolidin-2-yl]acetonitrile] | ≤ 100 | 
C=CC(=O)N1CC[C@H](n2nc(C#Cc3cc4ncn(CC)c4c(F)c3F)c3c(N)ncnc32)C1 [Example 153, 1-[(3S)-3-{4-Amino-3-[2-(1-ethyl-6,7-difluoro-1,3-benzodiazol-5-yl)ethynyl]pyrazolo[3,4-d]pyrimidin-1-yl}pyrrolidin-1-yl]prop-2-en-1-one] | ≤ 100 | 
C=CC(=O)N1C[C@@H](n2cc(C#Cc3c(F)cc4c(ncn4C)c3F)c3c(N)ncnc32)C[C@@H]1COC(F)(F)F [Example 68, 1-((2R,4S)-4-(4-Amino-5-((4,6-difluoro-1-methyl-1H-benzo[d]imidazol-5-yl)ethynyl)-7H-pyrrolo[2,3-d]pyrimidin-7-yl)-2-((trifluoromethoxy)methyl)pyrrolidin-1-yl)prop-2-en-1-one] | ≤ 100 | 
C=CC(=O)N1C[C@@H](n2cc(C#Cc3cc4ncn(C)c4cc3Cl)c3c(N)ncnc32)C[C@@H]1COC [Example 91, 1-[(2R,4S)-4-[4-Amino-5-[2-(6-chloro-1-methyl-1,3-benzodiazol-5-yl)ethynyl]pyrrolo[2,3-d]pyrimidin-7-yl]-2-(methoxymethyl)pyrrolidin-1-yl]prop-2-en-1-one] | ≤ 100 | 
